Laboratory results as given in ChEMBL document CHEMBL5036359, “Repositioning Food and Drug Administration-Approved Drugs for Inhibiting Biliverdin IXβ Reductase B as a Novel Thrombocytopenia Therapeutic Target” (J Med Chem, 2022).

Experiments:
[1] = biological target: T1, Flavin reductase (NADPH) (Homo sapiens) (UniProt P30043); assay: Binding affinity to human N-terminal His6-tagged and thrombin cleavage fused BLVRB expressed in Escherichia coli BL21 (DE3) assessed as change in enthalpy by isothermal titration calorimetry
T1 sequence (whole entry): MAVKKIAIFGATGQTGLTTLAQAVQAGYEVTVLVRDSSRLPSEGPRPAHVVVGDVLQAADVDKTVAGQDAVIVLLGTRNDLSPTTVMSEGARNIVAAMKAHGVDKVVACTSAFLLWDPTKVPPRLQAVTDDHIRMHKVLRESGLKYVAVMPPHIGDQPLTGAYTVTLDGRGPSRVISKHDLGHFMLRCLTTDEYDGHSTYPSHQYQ

[2] = biological target: T1, Flavin reductase (NADPH) (Homo sapiens); assay: Binding affinity to human N-terminal His6-tagged and thrombin cleavage fused BLVRB expressed in Escherichia coli BL21 (DE3) assessed as change in entropy by isothermal titration calorimetry
[3] = biological target: T1, Flavin reductase (NADPH) (Homo sapiens); assay: Binding affinity to human N-terminal His6-tagged and thrombin cleavage fused BLVRB expressed in Escherichia coli BL21 (DE3) assessed as change in gibbs free energy by isothermal titration calorimetry
Flavin reductase (NADPH) = biological target: T2, Flavin reductase (NADPH) (Homo sapiens, UniProt P30043); assay: Binding affinity to human N-terminal His6-tagged and thrombin cleavage fused BLVRB expressed in Escherichia coli BL21 (DE3) assessed as dissociation constant by isothermal titration calorimetry
T2 sequence (P30043 whole entry): T1 sequence (whole entry)

| Compound | deltaH [1] [kcal/mol] | TdeltaS [2] [kcal/mol] | deltaG [3] [kcal/mol] | Kd (Flavin reductase (NADPH)) [nM] |
| --- | --- | --- | --- | --- |
| O=C(O)c1c(Cl)c(Cl)c(Cl)c(Cl)c1-c1c2cc(Br)c(=O)c(Br)c-2oc2c(Br)c(O)c(Br)cc12 | -3.88 | 4.12 | -8 | 1360 |
| O=C(O)c1cc(/N=N/c2ccc(S(=O)(=O)Nc3ccccn3)cc2)ccc1O | -9.43 | -0.76 | -8.67 |  |
| CC1(C)CCC(C)(C)c2cc(NC(=O)c3ccc(C(=O)O)cc3)ccc21 | -4.49 | 3.5 | -7.99 |  |
| O=C1OC2(c3ccccc31)c1cc(I)c(O)c(I)c1Oc1c2cc(I)c(O)c1I [ERYTHROSINE] | -6.38 | 2.91 | -9.28 | 160 |
| O=C(O)c1ccc(-n2nc(-c3ccccc3O)nc2-c2ccccc2O)cc1 [DEFERASIROX] | -7.32 | 0.55 | -7.87 | 1710 |
| O=C(O)c1cccc(-c2noc(-c3ccccc3F)n2)c1 | -11 | -1.83 | -9.13 | 200 |
| Cc1nc(-c2ccc(OCC(C)C)c(C#N)c2)sc1C(=O)O [FEBUXOSTAT] | -5.75 | 2.14 | -7.9 | 1630 |
